In paper PMC11662004 (Communications Chemistry, 2024):
“And” between values parts separate entries of the source, which are not always exact repeats. Equal entries are not always repeated.

Tests used:
[1] = test system: TET2CDΔLCI; assay: Continuous reaction monitoring (1H NMR), 2OG decarboxylation; format: biochemical, human; settings: Supp Fig 10 a
Protocol: Double-stranded DNA oligomers were added at a final concentration of 20 µM. Data plotted from two independent replicates (n = 2). Initial rates reported as the mean of two independent replicates (n = 2). TEXT PRINTED IN THE PICTURE: (c) No DNA: V0 (μM min^−1) NgTet1: 0.36; V0 (μM min^−1) TET2: 1.28; Relative V0 NgTet1: 1; Relative V0 TET2: 1 | (c) ^5HC DNA: V0 (μM min^−1) NgTet1: 1.30; V0 (μM min^−1) TET2: 6.34; Relative V0 NgTet1: 3.6; Relative V0 TET2: 5.0 | (c) AT DNA: V0 (μM min^−1) NgTet1: 0.82; V0 (μM min^−1) TET2: 5.78; Relative V0 NgTet1: 2.3; Relative V0 TET2: 4.5 | (c) ^5mC DNA: V0 (μM min^−1) NgTet1: 1.52; V0 (μM min^−1) TET2: 6.79; Relative V0 NgTet1: 4.2; Relative V0 TET2: 5.3
All ^1H NMR spectra were recorded at 25 °C using D2O as a reference for internal deuterium lock on a Bruker Avance III 700 MHz equipped with an inverse TCI cryoprobe in 3 or 5 mm diameter tubes with a total sample volume of 160 or 565 μL, respectively. The water signal was reduced using Perfect Echo excitation sculpting suppression. Chemical shifts are reported in ppm relative to D2O (δH = 4.70 ppm).
Spectrometer settings were determined using a control sample containing all reaction components excluding enzyme. TET enzyme was added to an identical sample, and the resulting assay mixture was transferred to an NMR tube before deposition into the instrument. […] Data acquisition was started following a brief spectrometer setting optimisation (up to 200 s delay between enzyme addition and data acquisition); 8–32 scans were accumulated for a single spectrum, corresponding to 65–179 s of acquisition time. Spectrum recordings were carried out consecutively without delay. Data were processed using automated routines on MestReNova v14.2.0; signals of interest were integrated with absolute intensity scaling. ^1H NMR time courses reported in figures are representative results from two or three independent replicates.

[2] = molecular target: T1, NgTet1 (Naegleria gruberi, UniProt D2W6T1); assay: biochemical; settings: for normalised activity, %: AlphaScreen
T1 construct: His6-tagged full-length Naegleria gruberi NgTet1 (321 a. a.) protein with a thrombin cleavage site; made in house; host or cells: E. coli BL21(DE3)
T1 sequence (D2W6T1 1-321): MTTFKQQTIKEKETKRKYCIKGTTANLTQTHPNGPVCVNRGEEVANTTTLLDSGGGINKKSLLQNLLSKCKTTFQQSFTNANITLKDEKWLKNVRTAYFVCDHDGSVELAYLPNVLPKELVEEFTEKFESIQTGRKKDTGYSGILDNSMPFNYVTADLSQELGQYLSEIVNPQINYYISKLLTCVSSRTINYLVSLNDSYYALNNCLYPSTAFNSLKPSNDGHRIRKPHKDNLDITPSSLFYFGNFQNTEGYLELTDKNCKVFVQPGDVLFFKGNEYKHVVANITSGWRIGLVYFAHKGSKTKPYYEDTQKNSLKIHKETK
Protocol: (Fig. 5a), were screened for inhibitory activity against NgTet1.
Activity was normalised against reactions containing vehicle (DMSO). […] AS data shown as the mean of three experimental replicates (n = 3; mean ± SD); ^1H NMR data plotted from two independent replicates (n = 2); tabulated data reported as the mean of two and three independent replicates for ^1H NMR and AS, respectively (n = 2–3, SD reported for n = 3). N. d.: not determined; AS: AlphaScreen.
Compounds in DMSO (100 nL) were pre-dispensed in a logarithmically linear concentration gradient onto 384-well ProxiPlates using an Echo® 550 acoustic liquid handler (Labcyte). NgTet1 was pre-incubated with the inhibitor dilution series in DMSO at room temperature for 10 min. Reactions were initiated by the addition of appropriate cofactors and DNA. […] The reactions were quenched by the addition of 30 mM EDTA (pH 4.2), 358 mM NaCl (5 μL) within the enzyme linear activity window (determined in Fig. S10). Concurrently, a mixture containing the anti-^5hmC antibody (1:2000 dilution) and AlphaScreen beads (1:62.5 dilution) in assay buffer was prepared and incubated at room temperature for 30 min. The AlphaScreen bead/antibody mixture was added to the quenched NgTet1 reactions (5 μL), and the complete mixture was incubated at room temperature for 1 h. Chemiluminescence was measured on a PHERAstar FS/FSX (BMG Labtech) equipped with an AlphaScreen 680 570 module. All AlphaScreen bead manipulations were performed under subdued lighting. Inhibition data was normalised to reactions containing vehicle only (1% v/v DMSO) and fitted using “log(inhibitor) vs. response—Variable slope (four parameters)” non-linear regression model on GraphPad Prism 5.

Molecule | succinate ([1]; Time 0 min) [µM] | succinate ([1]; Time 2.5 min) [µM] | succinate ([1]; Time 5 min) [µM] | succinate ([1]; Time 7.5 min) [µM] | succinate ([1]; Time 10 min) [µM] | succinate ([1]; Time 15 min) [µM] | succinate ([1]; Time 20 min) [µM] | normalised activity, % ([2]; -Log[inhibitor] (M) 3.30535) | normalised activity, % ([2]; -Log[inhibitor] (M) 3.82823) | normalised activity, % ([2]; -Log[inhibitor] (M) 4.30535) | normalised activity, % ([2]; -Log[inhibitor] (M) 4.90741) | normalised activity, % ([2]; -Log[inhibitor] (M) 5.39553) | normalised activity, % ([2]; -Log[inhibitor] (M) 5.91841) | normalised activity, % ([2]; -Log[inhibitor] (M) 6.39553) | normalised activity, % ([2]; -Log[inhibitor] (M) 6.99759) | normalised activity, % ([2]; -Log[inhibitor] (M) 7.50947) | normalised activity, % ([2]; -Log[inhibitor] (M) 8.03235) | IC50 ([2]; read-out: IC50, 5mC ssDNA, AS) [µM]
5HC DNA: non-methylated DNA of the same sequence, 5'-ACC ACC GGT GGT-3', non-substrate (DNA ACCACCGGTGGT; DNA, backbone not given here) | 2.2 | 3.9 | 6.5 | 9.5 | 12.4 | 17.3 | 21.5 | – | – | – | – | – | – | – | – | – | – | –
O=C(O)CNC(=O)C(=O)O [NOG, N-oxalylglycine] | – | – | – | – | – | – | – | 27.0589% and 23.4073% and 23.5938% | 54.6166% and 46.9965% and 50.3704% | 72.1146% and 66.2321% and 78.0488% | 90.0386% and 80.363% and 83.4878% | 101.245% and 102.244% and 89.2336% | 103.288% and 99.259% and 97.2201% | 114.516% and 95.8112% and 105.039% | 113.992% and 95.1834% and 95.7883% | 110.682% and 100% and 109.028% | 108.192% and 91.8591% and 90.7491% | 200
